Source: patent US5759789A, “Prostaglandin receptor EP2” (Merck Frosst Canada, Inc., priority 1996, dated 1998)
pIC50: −log10 of the molar value. “Also recorded” adds a separate entry of the source. Read-outs that look alike come from different tables or passages of the source. One block for each compound: values may come before it.

Key:
EP2 receptor [1] = molecular target: T1, EP2 receptor (Homo sapiens, UniProt P35408); assay: [3H]PGE2 binding (competition) assay, membranes of COS-M6 cells transfected with EP2; design: full-length human EP2 cDNA was isolated; This 1.958 kb cDNA clone encodes a 488-amino acid protein; expressed in transfected cells; host or cells: COS-M6 cells (pcDNAIamp plasmid, DEAE-dextran), 100,000 x g membrane fraction; conditions: for activity at EP2 in words / rank order of potency for prostaglandins and related analogs: competition with [3H]PGE2
Method: The cells were maintained in culture for 72 h, then harvested and membranes prepared by differential centrifugation (1000×g for 10 min, then 100,000×g for 30 min) following lysis of the cells by nitrogen cavitation. […] Incubations were conducted for 45 min at 30° C. prior to separation of the bound and free radioligand by rapid filtration through Whatman GF/B filters presoaked at 4° C. in washing buffer ([…] MES/KOH (pH 6.0) containing 0.01% bovine serum albumin).

[2] = system: control oocytes (CFTR alone or CFTR plus antisense EP2 cDNA injected); assay: CFTR-mediated Cl- current in control oocytes (CFTR alone or CFTR plus antisense EP2 cDNA injected); format: cell-based, Xenopus laevis
EP1 receptor = conditions: cited from earlier work
EP2 receptor [3] = conditions: cited from earlier work
EP2 receptor [4] = molecular target: T1, EP2 receptor; assay: PGE2-induced CFTR-mediated Cl- current in Xenopus oocytes injected with EP2 plus CFTR cDNA; format: cell-based
Method: Oocytes were taken from adult females of Xenopus laevis using standard surgical procedure (Colman, A., 1984 In: Transcription and Translation--A Practical Approach, IRL Press). To remove follicle cells, oocytes were treated for 2-3 h with freshly made collagenase (2 mg/ml, type 2, Worthington Biochemical Corp., Freehold, N.J.) in Ca^2+ -free ND96 solution (ND96 in mM: NaCl 96, KCl 2, MgCl2 1, HEPES 5, Na-pyruvate 2.5, theophylline 0.5 gentamicin […], +1.8 CaCl2, pH 7.6). Defolliculated stage 5-6 oocytes were selected and maintained in ND96 solution. Oocyte nuclei were injected with 1.6 ng of pcDNAIamp-EP2 plus 2.5 ng of pcDNAIamp-CFTR and then incubated at 18° C. for 48 h before challenge with agonist. CFTR (cystic fibrosis transmembrane regulator, a cAMP dependent Cl^- channel) was co-expressed with EP2 receptor in these oocytes and served as a reporter of changes in intracellular cAMP levels. Functional activity was determined by measurement of PGE2-induced CFTR-mediated Cl^- current. An oocyte was placed in a 0.5 ml perfusion chamber and voltage clamped at -60 mV (with microelectrodes of 0.5-2.0 MW resistance filled with 3M KCl) using a Turbo TEC01C amplifier (NP1 Instruments, Germany). Ligand-containing solution was perfused and the current response was recorded.

EP3 receptor = conditions: cited from earlier work
EP2 receptor [5] = conditions: cited from earlier work; remark: listed apart in the source
TP receptor = conditions: cited from earlier work
IP receptor = conditions: cited from earlier work
[6] = CFTR alone or CFTR plus antisense EP2 cDNA injected

T1 sequence (P35408 whole entry): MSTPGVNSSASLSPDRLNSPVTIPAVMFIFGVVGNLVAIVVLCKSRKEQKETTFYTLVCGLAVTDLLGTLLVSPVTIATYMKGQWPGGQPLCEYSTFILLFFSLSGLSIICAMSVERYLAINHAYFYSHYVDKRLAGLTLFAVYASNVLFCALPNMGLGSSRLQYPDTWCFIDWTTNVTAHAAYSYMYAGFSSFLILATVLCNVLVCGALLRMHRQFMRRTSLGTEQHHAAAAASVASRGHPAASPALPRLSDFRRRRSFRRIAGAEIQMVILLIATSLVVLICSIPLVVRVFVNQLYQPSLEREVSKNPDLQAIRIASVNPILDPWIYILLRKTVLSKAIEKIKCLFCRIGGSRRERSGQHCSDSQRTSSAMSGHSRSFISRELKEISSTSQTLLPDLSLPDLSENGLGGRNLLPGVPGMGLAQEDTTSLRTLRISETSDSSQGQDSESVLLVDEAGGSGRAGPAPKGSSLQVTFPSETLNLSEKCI

pIC50 (EP2 receptor [1]; read-out: IC50): 5.22
Compound: CCCCC(C)(O)C/C=C/[C@H]1[C@H](O)CC(=O)[C@@H]1CCCCCCC(=O)OC (mixture of isomers) [Misoprostol]

activity at EP2 in words (EP2 receptor [1]): essentially inactive
Compound: CC(C)Oc1ccc2c(=O)c3cc(C(=O)O)ccc3oc2c1 [AH6809]

potency at EP2 relative to EP3 (fold less potent at EP2 than EP3) (EP2 receptor [1]; EP2 versus EP3): approximately 30 fold
Compound: O=C(O)CCCCCC[C@H]1C(=O)CC[C@@H]1/C=C/[C@@H](O)COc1ccccc1 [MB28767]

pIC50 (EP2 receptor [1]; read-out: IC50 values in competition assays): 9.00
Compound: CCCCC[C@H](O)/C=C/[C@H]1[C@H](O)CC(=O)[C@@H]1CCCCCCC(=O)O [PGE1]
rank order of potency for prostaglandins and related analogs (EP2 receptor [1]): PGE2=PGE1>>phenyl-trinor PGE2>iloprost>PGF2α >PGD2≈U46619

current response compared with PGE2 (EP2 receptor [4]; 1 μM PGF2α): much smaller
Compound: CCCCC[C@H](O)/C=C/[C@@H]1[C@@H](C/C=C\CCCC(=O)O)[C@@H](O)C[C@H]1O [PGF2α]
rank order of potency for prostaglandins and related analogs (EP2 receptor [1]): PGE2=PGE1>>phenyl-trinor PGE2>iloprost>PGF2α >PGD2≈U46619
response of control oocytes [2, 6]: absent

activity at EP2 in words (EP2 receptor [1]): essentially inactive
Compound: CC(=O)NNC(=O)N1Cc2ccccc2Oc2ccc(Cl)cc21 [SC19220]

activity at EP2 in words (EP2 receptor [1]): relatively inactive
pIC50 (EP2 receptor [1]; read-out: IC50): 4.52
Compound: CCCC1([C@H](O)C/C=C/[C@H]2[C@H](O)CC(=O)[C@@H]2CCCCCCC(=O)OC)CCC1 [butaprost]

The remaining lines, values behind:

Compound: CC(C)Cn1c(=O)n(C)c(=O)c2[nH]cnc21 [IBMX]
CFTR-mediated Cl- current ([2]; CFTR + anti-sense hEP2 cDNA injected oocytes): IBMX-induced, CFTR-mediated Cl^- current

Compound: CCCCC[C@H](O)/C=C/[C@H]1C(=O)C[C@H](O)[C@@H]1C/C=C\CCCC(=O)O [PGD2]
rank order of potency for prostaglandins and related analogs (EP2 receptor [1]): PGE2=PGE1>>phenyl-trinor PGE2>iloprost>PGF2α >PGD2≈U46619

Compound: CCCCC[C@H](O)/C=C/[C@H]1[C@H](O)CC(=O)[C@@H]1C/C=C\CCCC(=O)O [PGE2, prostaglandin E2]
affinity (EP1 receptor): high affinity
intracellular cAMP levels (EP2 receptor [3]): increase in intracellular cAMP levels
rank order of potency for prostaglandins and related analogs (EP2 receptor [1]): PGE2=PGE1>>phenyl-trinor PGE2>iloprost>PGF2α >PGD2≈U46619
current response (EP2 receptor [4]; perfusion of 1 nM, voltage clamp -60 mV, 1.6 ng EP2 plus 2.5 ng CFTR cDNA): inward cAMP-dependent Cl^- current; also recorded: prominent current responses
affinity (EP3 receptor): high affinity
response of control oocytes ([2]; 1 μM, CFTR + anti-sense hEP2 cDNA): lack of response
response of control oocytes ([2]; 3 μM, CFTR + anti-sense hEP2 cDNA): lack of response
response of control oocytes [2, 6]: absent
affinity (EP2 receptor [5]): high affinity

Compound: CCCCC[C@H](O)/C=C/[C@@H]1[C@@H](C/C=C\CCCC(=O)O)[C@H]2CO[C@@H]1C2 [U46619]
potency at the TP receptor, stable thromboxane analog (TP receptor): comparable potency
rank order of potency for prostaglandins and related analogs (EP2 receptor [1]): PGE2=PGE1>>phenyl-trinor PGE2>iloprost>PGF2α >PGD2≈U46619

Compound: CC#CCC(C)[C@H](O)/C=C/[C@@H]1[C@H]2C/C(=C/CCCC(=O)O)C[C@H]2C[C@H]1O (stereo partly drawn) [iloprost]
potency at the IP receptor, stable prostacyclin analog (IP receptor): comparable potency
rank order of potency for prostaglandins and related analogs (EP2 receptor [1]): PGE2=PGE1>>phenyl-trinor PGE2>iloprost>PGF2α >PGD2≈U46619

Compound: O=C(O)CCCC=CCC1C(=O)CC(O)C1C=CC(O)CCc1ccccc1 (stereo not drawn) [phenyl-trinor PGE2, 17-pheyyl-trinor PGE2]
rank order of potency for prostaglandins and related analogs (EP2 receptor [1]): PGE2=PGE1>>phenyl-trinor PGE2>iloprost>PGF2α >PGD2≈U46619
